Test results reported in patent US20130012451A1, “COMPOSITIONS AND METHODS FOR INHIBITING MMP-9-MEDIATED CELL MIGRATION” (The Research Foundation of State University of New York, priority 2009, published 2013).
“Also recorded” adds a separate entry of the source. Where two headings read alike, the source gives them in different places. Where no end group is shown, it is not given here.

Legend:
CD44/MMP-9 heterodimer = target: T1, CD44/MMP-9 heterodimer (Homo sapiens, UniProt P16070); test: Co-immunoprecipitation assay of CD44/MMP-9 complex formation in transfected COS-1 cells; type: cell-based; settings: COS-1 cells transfected with CD44 and MMP-9 cDNAs, peptides for 30 minutes
T1 construct: The MMP-9 cDNA containing the open reading frame of MMP-9 was amplified by a PCR approach; expressed in transfected cells; host or cells: COS-1 monkey kidney epithelial cells
T1 sequence (P16070 21-742, one chain of several): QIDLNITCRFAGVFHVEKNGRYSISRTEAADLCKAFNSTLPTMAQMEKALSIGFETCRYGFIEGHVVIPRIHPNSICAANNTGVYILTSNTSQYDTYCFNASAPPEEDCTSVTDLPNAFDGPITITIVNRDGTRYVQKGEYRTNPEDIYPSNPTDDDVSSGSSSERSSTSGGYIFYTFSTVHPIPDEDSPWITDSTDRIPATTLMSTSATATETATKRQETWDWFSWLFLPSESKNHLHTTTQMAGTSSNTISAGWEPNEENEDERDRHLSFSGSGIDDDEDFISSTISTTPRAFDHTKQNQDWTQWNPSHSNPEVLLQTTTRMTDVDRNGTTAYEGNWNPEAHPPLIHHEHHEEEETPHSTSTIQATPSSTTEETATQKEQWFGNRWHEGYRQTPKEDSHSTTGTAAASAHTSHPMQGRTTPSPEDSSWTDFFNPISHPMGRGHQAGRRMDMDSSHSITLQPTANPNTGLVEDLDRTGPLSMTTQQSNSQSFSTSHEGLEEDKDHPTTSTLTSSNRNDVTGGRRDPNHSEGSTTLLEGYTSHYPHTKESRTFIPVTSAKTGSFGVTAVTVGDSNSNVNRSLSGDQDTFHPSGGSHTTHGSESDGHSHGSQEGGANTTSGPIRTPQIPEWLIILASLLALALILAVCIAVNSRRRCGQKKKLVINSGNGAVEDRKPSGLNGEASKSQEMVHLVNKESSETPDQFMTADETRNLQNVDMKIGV
From the text: (§1) Procedures for Gelatin Substrate Zymography, Immunoblotting, Immunoprecipitation, Transwell Chamber Cell Migration and Phagokinetic Cell Migration Assays
(§2) Basic protocols for these techniques have been described previously (Cao et al., 1996; Dufour et al., 2008).
To further examine the importance of cross-talk between CD44 and MMP-9 in cell migration, an 8-amino acids peptide (SRPQGPFL) (SEQ ID NO: 2) was synthesized to mimic the outermost β-strand of the first blade of the MMP-9 PEX domain (IS4 peptide). As a control, a scrambled peptide with the same amino acids but rearranged in different order (GLSQPRFP) (SEQ ID NO: 35) was synthesized. COS-1 cells transfected with CD44 and MMP-9 cDNAs were treated with IS4 and IS4 scrambled peptides for 30 minutes followed by monitoring complex formations between CD44 and MMP-9 using a co-immunoprecipitation assay.

HT1080 cells = test: Transwell chamber migration assay, HT1080 cells expressing endogenous MMP-9; type: cell-based, human; settings: 100 μM peptide, 6 h at 37° C.
Method: Human fibrosarcoma HT1080 cells are highly invasive and metastatic. […] Since this cell line produces endogenous MMP-9, the inventors sought to test if the MMP-9 IS4 and IVS4 peptides can be used to interfere with function of endogenous MMP-9. To this end, HT1080 cells were employed and cell migratory ability was evaluated using a Transwell chamber migration assay (FIG. 11). The cells were incubated with 100 μM of IS4 peptide (SRPQGPFL) (SEQ ID NO: 2), IS4 scrambled peptide (GLSQPRFP) (SEQ ID NO: 35), IVS4 peptide (NQVDQVGY) (SEQ ID NO: 1), IVS4 scrambled peptide (VQYDNGQV) (SEQ ID NO: 51), and a combination of IS4 and IVS4 peptides for 6 h at 37° C. 1% DMSO was used as a vehicle control. Migrated cells were microscopically counted. Each data point was performed in triplicate and the experiment was repeated three times (*P<0.05). […] While not limiting the invention to any particular mechanism, it is the inventors' view that this is potentially because both inhibitory peptides target the same molecule.

[1] = system: cell migration induced by MT1-MMP; test: Transwell migration assay, cell migration induced by MT1-MMP; type: cell-based
From the text: (§3) One approach to blunt MMP-9 induced cell migration might be to target the herein discovered homodimer formation, which is a prerequisite for MMP-9-induced cell migration. Given the observation that the outermost β-strand of the fourth blade of the MMP-9 PEX domain is required for MMP-9 homodimerization formation, an 8-amino acids peptide (NQVDQVGY) (SEQ ID NO: 1) was synthesized to mimic the outer β-strand of blade IV of MMP-9 PEX domain (IVS4 peptide). As a control, a scrambled peptide with the same amino acids but rearranged in different order (VQYDNGQV) (SEQ ID NO: 51) was designed and synthesized. To test if IVS4 peptide blocked MMP-9 homodimer formation, COS-1 cells transfected with MMP-9 cDNA were treated with peptides for 30 minutes followed by a co-immunoprecipitation assay. […] To examine the potential therapeutic effect of this peptide, a transwell migration assay was performed. […] This IVS4 peptide, however, had no effect on cell migration induced by MT1-MMP, an integral membrane matrix metalloproteinase capable of stimulating cell migration (Cao et al., 2004).

[2] = system: MMP-9-induced cell migration of transfected COS-1 cells; settings: for MMP-9-induced cell migration: transwell chamber migration assay for 6 hours, MMP-9 transfected COS-1 cells
Method: (P-values reflect comparison with MMP-9 transfected cells: *P<0.05). […] COS-1 cells transfected with an empty vector or MMP-9 cDNAs were examined by a transwell chamber migration assay for 6 hours in the presence of DMSO control, specific and scramble peptides at different concentration. Each data point was performed in triplicate and the experiments was repeated three times (*P<0.05).
Transfection of plasmid DNA in COS-1 cells was achieved using polyethylenimine (Polysciences) or Transfectin™ reagents (Bio-Rad) and the transfected cells were incubated for 48 h at 37° C. followed by biochemical and biological assays.

MMP-9 homodimer = target: T2, MMP-9 homodimer (Homo sapiens, UniProt P14780); test: Co-immunoprecipitation assay of MMP-9 homodimer formation in transfected COS-1 cells; type: cell-based
T2 construct: The MMP-9 cDNA containing the open reading frame of MMP-9 was amplified by a PCR approach; by a site-directed mutagenesis approach using wild type MMP-9 as a template; expressed in transfected cells; host or cells: COS-1 monkey kidney epithelial cells
T2 sequence (P14780 20-707 limits assumed): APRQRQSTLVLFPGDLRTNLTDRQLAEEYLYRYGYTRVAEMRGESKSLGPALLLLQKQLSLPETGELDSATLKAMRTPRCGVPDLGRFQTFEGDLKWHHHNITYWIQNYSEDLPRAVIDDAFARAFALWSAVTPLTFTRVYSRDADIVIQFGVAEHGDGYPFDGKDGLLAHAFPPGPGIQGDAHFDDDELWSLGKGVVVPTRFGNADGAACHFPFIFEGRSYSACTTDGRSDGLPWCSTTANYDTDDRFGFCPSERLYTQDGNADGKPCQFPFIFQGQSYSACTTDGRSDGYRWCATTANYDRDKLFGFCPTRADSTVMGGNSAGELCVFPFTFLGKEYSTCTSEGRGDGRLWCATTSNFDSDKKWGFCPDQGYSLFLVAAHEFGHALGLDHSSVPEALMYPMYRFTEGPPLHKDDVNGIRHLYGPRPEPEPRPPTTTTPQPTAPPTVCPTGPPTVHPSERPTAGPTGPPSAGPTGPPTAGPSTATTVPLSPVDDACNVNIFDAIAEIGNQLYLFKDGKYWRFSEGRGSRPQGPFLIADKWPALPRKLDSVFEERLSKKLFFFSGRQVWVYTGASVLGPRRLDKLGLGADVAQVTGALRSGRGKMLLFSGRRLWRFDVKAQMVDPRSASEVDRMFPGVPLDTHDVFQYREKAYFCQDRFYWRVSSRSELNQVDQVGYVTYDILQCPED
From the text: as §1, §2
COS-1 cells co-transfected with HA- and Myc-tagged MMP-9 cDNAs were then employed to examine homodimer formation using a co-immunoprecipitation approach. The HA-tagged MMP-9 proteins in the conditioned medium of transfected COS-1 cells were immunoprecipitated with anti-HA antibodies followed by a western blotting probed by anti-Myc antibodies. […] To further confirm this observation, the reciprocal co-immunoprecipitation was performed. Anti-Myc antibodies were employed to precipitate Myc-tagged MMP-9 complexes in the conditioned medium of co-transfected COS-1 cells followed by western blotting using anti-HA antibodies. This reciprocal approach confirms that MMP-9 does form a homodimer in the condition medium of transfected COS-1 cells.
as §3

[3] = system: MMP9/PEXMMP-2/Myc transfected COS-1 cells; test: Transwell migration assay, COS-1 cells transfected with MMP9/PEXMMP-2/Myc; type: cell-based, monkey; settings: co-expression of TIMP
From the text: FIG. 3. TIMP-1 interferes with MMP-9 homodimerization. (A) TIMP-1, but not TIMP-2 interferes with MMP-9 dimerization in transfected COS-1 cells examined by a co-immunoprecipitation assay for conditioned medium and cell lysates (upper and middle panels), and immunoblotting for α/β tubulin (lower panel, loading control). (B) TIMP-1 co-precipitated with MMP-9 in both the lysate and the conditioned medium of transfected COS-1 cells examined by a co-immunoprecipitation assay. (C) MMP-9 chimera substituting the PEX domain with the corresponding MMP-2 interacts with TIMP-2 in transfected COS-1 cells, but not wild type MMP-9. (D) COS-1 cells transfected with corresponding cDNAs were subjected to a transwell migration assay. Three triplicated repeats were performed for each transfection. *P<0.05.
The role of TIMP-1 in interfering with MMP-9 homodimer formation remains controversial (Goldberg et al., 1992; Olson et al., 2000). This discrepancy led us to reevaluate the specific interference of TIMP-1 on proMMP-9 homodimer formation using the biochemical approach described above. […]

Q: “GLSQPRFP [IS4 scrambled peptide, control scrambled peptide with the same amino acids as IS4 rearranged in different order, reference compound]” was tested. Which CD44/MMP-9 heterodimer formation (CD44/MMP-9 heterodimer) did it give?
A: minimal effect

Q: With NQVDQVGY [IVS4 peptide, NQVDQVGY] as the substance, how does the HT1080 cell migration (HT1080 cells) read?
A: significantly reduced; also recorded: efficiently reduced

Q: What about the “cell migration induced by MT1-MMP” value [1] of the same substance?
A: no effect

Q: What about the IC50 [2] of the same substance?
A: 50 µM

Q: And the MMP-9-induced cell migration [2]?
A: inhibited MMP-9-induced cell migration in a dose-dependent manner

Q: And the MMP-9-induced cell migration ([2]; listed as IVS4)?
A: efficiently reduced

Q: And the MMP-9-induced cell migration ([2]; listed as IVS4 peptides)?
A: Dose dependent inhibition

Q: And the MMP-9 homodimer formation (MMP-9 homodimer; COS-1 cells transfected with MMP-9 cDNA, treated with peptides for 30 minutes, co-immunoprecipitation)?
A: efficiently blocked

Q: And the MMP-9 homodimer formation (MMP-9 homodimer; COS-1 cells transfected with MMP-9 cDNA, treated with peptides for 30 minutes, co-immunoprecipitation, listed as IVS4)?
A: abrogates

Q: With SRPQGPFL [IS4 peptide, SRPQGPFL] as the substance, how does the HT1080 cell migration (HT1080 cells; listed as IS4) read?
A: significantly reduced; also recorded: efficiently reduced

Q: What about the IC50 [2] of the same substance?
A: 12 µM

Q: And the MMP-9-induced cell migration [2]?
A: dose-dependent inhibition

Q: What about the MMP-9-induced cell migration ([2]; listed as IS4) of the same substance?
A: efficiently reduced

Q: What about the MMP-9-induced cell migration ([2]; listed as IS4 peptides) of the same substance?
A: Dose-dependent inhibition

Q: What about the CD44/MMP-9 heterodimer formation (CD44/MMP-9 heterodimer) of the same substance?
A: interferes

Q: Which results are given for “TIMP-1: tissue inhibitor of metalloproteinases, co-expressed from cDNA in COS-1 cells”?
A: MMP9/PEXMMP-2/Myc enhancement of COS-1 cell migration [3]: no apparent effect; also recorded: did not significantly inhibit; MMP-9 homodimer formation (MMP-9 homodimer; co-expression of TIMP cDNA with proMMP-9/Myc and proMMP-9/HA cDNAs in COS-1 cells, conditioned media and cell lysate): interferes; also recorded: blocking
